The values that follow are results of earlier work, collected in patent publication US8703048B2, “Buffered swelling media for radiation sterilized hydrophilic coatings” (Coloplast A/S, priority 2008, dated 2014).

For the first data set the following is noted: in water.
For the molecule `NCCC(=O)N[C@@H](Cc1cnc[nH]1)C(=O)O` [carnosine], the pKa1 is on record as 2.73, the pKa2 is reported as 6.87 and the pKa3 was 9.73.
As for `Nc1ccccc1C(=O)O` [anthranilic acid], the pKa1 is given as 2.11 and the pKa2 is 4.95.
For `O=C(O)CCCC(=O)O` [glutaric acid], the pKa1 was 4.31 and the pKa2 is 5.41.

Staying with this data set, now noted: in water; single value given.
The pKa is the pH at which an ionisable group is half protonated. In the case of `O=C(O)CNC(=O)c1ccccc1` [hippuric acid], the pKa is given as 3.80.
Turning to `N#CO` [cyanic acid], the pKa is 3.92.
With `O=C(O)[C@H](O)[C@@H](O)[C@H](O)[C@H](O)CO` [gluconic acid], the pKa is 3.56.
Consider `O=C(O)CCO` [3-hydroxypropionic acid], for which the pKa is listed as 3.73.
For `F` [hydrofluoric acid], the pKa is given as 3.45.
